Legend:
Oxa40 = Oxa40 (Acinetobacter baumannii, UniProt Q8RLA6); assay: Kinetic Assay; conditions: pH 7.2
Description: (§1) Steady-state kinetics were performed on an Agilent 8453 diode array spectrophotometer (Palo Alto, CA) in 50 mM sodium phosphate buffer (pH 7.2) supplemented with 20 mM NaHCO3.

Beta-lactamase OXA-1 = Beta-lactamase OXA-1 (Escherichia coli, UniProt P13661); assay: Kinetic Assay; conditions: pH 7.2
Description: as §1

Oxa40, sequence (Q8RLA6 whole entry): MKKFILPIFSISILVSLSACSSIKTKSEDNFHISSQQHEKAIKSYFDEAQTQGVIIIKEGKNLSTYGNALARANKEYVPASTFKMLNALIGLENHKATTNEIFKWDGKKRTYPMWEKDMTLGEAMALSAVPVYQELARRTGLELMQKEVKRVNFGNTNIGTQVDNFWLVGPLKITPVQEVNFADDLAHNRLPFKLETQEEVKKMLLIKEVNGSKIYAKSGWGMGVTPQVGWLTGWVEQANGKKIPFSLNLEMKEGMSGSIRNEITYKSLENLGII
Beta-lactamase OXA-1, sequence (P13661 whole entry): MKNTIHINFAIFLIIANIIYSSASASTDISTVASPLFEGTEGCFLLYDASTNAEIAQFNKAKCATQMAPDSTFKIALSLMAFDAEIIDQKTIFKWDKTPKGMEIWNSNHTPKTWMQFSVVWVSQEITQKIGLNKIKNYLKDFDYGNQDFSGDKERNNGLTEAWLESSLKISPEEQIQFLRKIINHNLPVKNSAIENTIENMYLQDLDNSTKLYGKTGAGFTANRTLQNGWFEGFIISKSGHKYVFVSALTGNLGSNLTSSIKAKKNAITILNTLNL

IC50 (Oxa40) [nM] | Ki (Oxa40) [nM] | IC50 (Beta-lactamase OXA-1) [nM] | Ki (Beta-lactamase OXA-1) [nM] | SMILES
160 | 150 | 60 | 380 | O=C(O)C1=CS[C@@H]2/C(=C\c3cn4c(n3)COCC4)C(=O)N12 [Penem 3]
150 | 30 | 30 | 50 | O=C(O)C1=CS[C@@H]2/C(=C\c3cc4n(n3)CSC4)C(=O)N12 [Penem 1]

Reference: BindingDB's records for doi:10.1074/jbc.M113.533562 (Case Western Reserve University, 2014)
